The record followed here is PubChem BioAssay (NCI).

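A five-concentration, 48-hour dose response in 96-well plates underlies each endpoint, interpolated linearly between surrounding concentrations. GI50 marks 50% less growth. TGI: total growth inhibition.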 Some results are limits rather than exact numbers.

Test systems include OVCAR-8 ovarian; OVCAR-5 ovarian; SN12C renal; TK-10 renal; SNB-19 CNS; OVCAR-3 ovarian; SF-539 CNS; SNB-75 CNS; K-562 leukemia; SK-MEL-2 melanoma.
Common to all, as to test: NCI anticancer screen, dose series, 48 h

With `Cn1ccnc1C(=O)/C=C/c1ccc(CC(=O)Nc2ccc(Br)cc2)cc1`, the GI50 is 5390 nM with OVCAR-8 ovarian; 2740 nM with OVCAR-5 ovarian; 3880 nM in the assay with SN12C renal; 6210 nM in the assay with TK-10 renal; 2610 nM in the assay with SNB-19 CNS; 4020 nM in the assay on OVCAR-3 ovarian. The GI50 with SF-539 CNS is 2430 nM; in the assay on SNB-75 CNS, 3050 nM; in the assay on K-562 leukemia it was 3880 nM; with SK-MEL-2 melanoma, over 16700 nM. Besides, the TGI in the assay on OVCAR-8 ovarian was over 16.7 µM; in the assay on OVCAR-5 ovarian, 7.38 µM; in the assay on SN12C renal, 11.1 µM; with TK-10 renal, over 16.7 µM; with SNB-19 CNS, 5.75 µM; with OVCAR-3 ovarian, 14.4 µM. The TGI with SF-539 CNS was 4.81 µM; in the assay on SNB-75 CNS, over 16.7 µM; in the assay on K-562 leukemia it was over 16.7 µM; in the assay on SK-MEL-2 melanoma, over 16.7 µM.
Regarding `C=C(CNCCO)[C@@H]1CC[C@]2(CO)CC[C@]3(C)[C@H](CC[C@@H]4[C@@]5(C)CCC(N)C(C)(C)[C@@H]5CC[C@]43C)[C@@H]12` (stereo partly specified), the GI50 with OVCAR-8 ovarian was 1820 nM; with OVCAR-5 ovarian it was 5080 nM; in the assay on SN12C renal, 1970 nM; in the assay with TK-10 renal, 2540 nM; in the assay on SNB-19 CNS it was 2270 nM; in the assay on OVCAR-3 ovarian, 7710 nM. Moreover, the GI50 is 1750 nM with SF-539 CNS, 1400 nM with SNB-75 CNS, 1480 nM with K-562 leukemia and 1980 nM with SK-MEL-2 melanoma. Also, the TGI came to 3.74 µM with OVCAR-8 ovarian; 18.1 µM with OVCAR-5 ovarian; 4.07 µM in the assay with SN12C renal; 7.07 µM with TK-10 renal; 5.23 µM with SNB-19 CNS; 20.7 µM in the assay on OVCAR-3 ovarian. The TGI in the assay on SF-539 CNS amounted to 3.21 µM; in the assay on SNB-75 CNS, 3.93 µM; in the assay with K-562 leukemia it was 3.33 µM; in the assay with SK-MEL-2 melanoma it was 3.65 µM.
Turning to `CC(=O)[O][Hg][c]1c(N)c(C)cc(C)c1F`, the GI50 is 1950 nM in the assay on OVCAR-5 ovarian; 1360 nM with SN12C renal; 1870 nM with TK-10 renal; 1990 nM in the assay on SNB-19 CNS; 1010 nM in the assay with OVCAR-3 ovarian; 1570 nM in the assay with SF-539 CNS. Moreover, the GI50 in the assay with SNB-75 CNS was 1600 nM; in the assay on K-562 leukemia it was 749 nM; in the assay on SK-MEL-2 melanoma it was 1560 nM. The TGI came to 3.67 µM with OVCAR-5 ovarian; 2.72 µM in the assay on SN12C renal; 3.32 µM in the assay on TK-10 renal; 5.13 µM in the assay on SNB-19 CNS; 2.28 µM in the assay with OVCAR-3 ovarian; 3.11 µM in the assay on SF-539 CNS. Moreover, the TGI in the assay on SNB-75 CNS worked out at 5.25 µM; with K-562 leukemia, 4.03 µM; in the assay with SK-MEL-2 melanoma, 3.23 µM.
On to `CNC(=O)c1ccccc1Nc1nc(Nc2ccc(N3CCOCC3)cc2OC)ncc1Cl`, for which the GI50 in the assay with OVCAR-8 ovarian is 2290 nM; in the assay on SN12C renal, 1770 nM; in the assay with TK-10 renal, 197 nM; with SNB-19 CNS it was 2050 nM; in the assay with OVCAR-3 ovarian it was 1730 nM; in the assay with SF-539 CNS, 1290 nM. Further, the GI50 is 766 nM with SNB-75 CNS, 4750 nM in the assay on K-562 leukemia and 274 nM in the assay on SK-MEL-2 melanoma. Also, the TGI with OVCAR-8 ovarian was over 100 µM; with SN12C renal, over 100 µM; in the assay with TK-10 renal it was 2.01 µM; in the assay on SNB-19 CNS it was over 100 µM; in the assay with OVCAR-3 ovarian, over 53.3 µM; in the assay with SF-539 CNS it was 7.68 µM. The TGI is 5.44 µM with SNB-75 CNS, over 90.5 µM with K-562 leukemia and 2.5 µM in the assay with SK-MEL-2 melanoma.
As for `COC(=O)[C@@]12C3=NO[C@]1(C(=O)OC)C(O[Si](C)(C)C(C)(C)C)[C@H]1OC(C)(C)O[C@H]1[C@@H]2C(OCc1ccccc1)CC3` (stereo partly specified), the TGI in the assay with OVCAR-8 ovarian is over 100 µM; in the assay with SN12C renal it was over 100 µM; in the assay on TK-10 renal, over 100 µM; in the assay on SNB-19 CNS it was 99.8 µM; in the assay with OVCAR-3 ovarian, over 100 µM; with SF-539 CNS, over 100 µM. In addition, the values for the TGI in the assay with SNB-75 CNS, in the assay with K-562 leukemia and in the assay on SK-MEL-2 melanoma were 58 µM, over 100 µM and over 100 µM, respectively.
For the compound `O=C(O)C(Cc1ccccc1)N1C(=O)N/C(=C\c2ccc(F)cc2)C1=O` (stereo unspecified), the TGI in the assay with OVCAR-8 ovarian, in the assay with OVCAR-5 ovarian, in the assay with SN12C renal, in the assay on TK-10 renal, with SF-539 CNS and with SNB-75 CNS was over 100 µM throughout. Also, the TGI in the assay on K-562 leukemia and in the assay on SK-MEL-2 melanoma was over 100 µM throughout.
On to `O=C(CCl)N1c2ccccc2Oc2ccc3ccccc3c21`, for which the GI50 in the assay with OVCAR-8 ovarian was 780 nM; in the assay on OVCAR-5 ovarian, 1810 nM; in the assay on TK-10 renal it was 769 nM; in the assay on SNB-19 CNS, 1860 nM; with OVCAR-3 ovarian, 1230 nM; in the assay with SF-539 CNS, 1590 nM. The GI50 in the assay with SNB-75 CNS is 1470 nM; in the assay with K-562 leukemia, 310 nM; in the assay on SK-MEL-2 melanoma, 1140 nM. The TGI in the assay with OVCAR-8 ovarian was determined as 2.28 µM; in the assay with OVCAR-5 ovarian it was 3.59 µM; in the assay on TK-10 renal, 1.7 µM; with SNB-19 CNS, 3.44 µM; in the assay with OVCAR-3 ovarian, 2.64 µM; in the assay on SF-539 CNS, 3.1 µM. Moreover, the TGI was 2.82 µM with SNB-75 CNS, 1.42 µM in the assay on K-562 leukemia and 2.67 µM in the assay with SK-MEL-2 melanoma.
As for `N#CC(C#N)=c1ccc(=C2NCC3CCCN23)cc1` (stereo unspecified), the TGI with OVCAR-8 ovarian, in the assay with OVCAR-5 ovarian, in the assay on SN12C renal, with TK-10 renal, in the assay on SNB-19 CNS and in the assay with SF-539 CNS was over 100 µM throughout. Besides, the TGI in the assay with SNB-75 CNS, in the assay with K-562 leukemia and in the assay with SK-MEL-2 melanoma was over 100 µM throughout.
`COc1ccc2c(c1)C1(C=N2)CCN(C(C)=O)CC1`: the TGI with OVCAR-8 ovarian, in the assay on OVCAR-5 ovarian, with TK-10 renal, in the assay on OVCAR-3 ovarian, in the assay on SF-539 CNS and in the assay on SNB-75 CNS was over 100 µM each time. Also, the TGI with K-562 leukemia and in the assay on SK-MEL-2 melanoma was over 100 µM throughout.
Take `CCNC1C2(CCCCC2)NC(=O)C12CCCCC2` (stereo unspecified): the TGI in the assay with OVCAR-8 ovarian, in the assay with OVCAR-5 ovarian, in the assay with TK-10 renal, in the assay with OVCAR-3 ovarian, in the assay with SF-539 CNS and in the assay with SNB-75 CNS was over 100 µM each time. Further, the TGI with K-562 leukemia and in the assay on SK-MEL-2 melanoma was over 100 µM each time.
